Common to all, as to experiment: combination cScore with adagrasib (Bliss gap around IC50) (%PoC); higher = stronger additive effect
In one assay the test system is NCI-H2122. In a few lines:
(§1)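 After 24 h in 384-well plates (500 or 800 cells per well), NCI-H2122, NCI-H358 and SW837 cells received concentration matrices and grew for 72 h, except SW837, which grew for 144 h. CellTiter-Glo readings were scaled to vehicle wells and fitted with four-parameter curves. Each score is the averaged Bliss-independence difference (expected minus measured viability) over a region around both monotherapy IC50s, or at top concentrations when no IC50 was reached.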

Another assay has as its system SW837. In a few lines: as §1
The test system of another assay is NCI-H358. Put shortly:
as §1

10 molecules from the supplement of paper PMC11424490 can be followed below.

On to `C[C@H](Nc1ncnc2nc[nH]c12)c1cc2cccc(Cl)c2c(=O)n1-c1ccccc1` [Duvelisib] + C=C(F)C(=O)N1CCN(c2nc(OC[C@@H]3CCCN3C)nc3c2CCN(c2cccc4cccc(Cl)c24)C3)C[C@@H]1CC#N [adagrasib], for which the “combination cScore with adagrasib” value in the assay on NCI-H2122 was determined as 15.9; with SW837 it was 12.8; in the assay on NCI-H358, 4.67.
For `C#Cc1cccc(Nc2ncnc3cc(OCCOC)c(OCCOC)cc23)c1` [Erlotinib] + C=C(F)C(=O)N1CCN(c2nc(OC[C@@H]3CCCN3C)nc3c2CCN(c2cccc4cccc(Cl)c24)C3)C[C@@H]1CC#N [adagrasib], in that order: 14.9, 19.4 and 10.
For `COc1cc(Nc2ncc(F)c(Nc3ccc4c(n3)N(COP(=O)(O)O)C(=O)C(C)(C)O4)n2)cc(OC)c1OC` [Fostamatinib] + C=C(F)C(=O)N1CCN(c2nc(OC[C@@H]3CCCN3C)nc3c2CCN(c2cccc4cccc(Cl)c24)C3)C[C@@H]1CC#N [adagrasib], in that order: 17.4, 7.91 and 3.37.
For `C[C@H](Nc1ccc2c(c1)OCCn1cc(N3C(=O)OC[C@H]3C(F)F)nc1-2)C(N)=O` [GDC-0077] + C=C(F)C(=O)N1CCN(c2nc(OC[C@@H]3CCCN3C)nc3c2CCN(c2cccc4cccc(Cl)c24)C3)C[C@@H]1CC#N [adagrasib] the same measures were 22.2, 5.13 and 5.51.
For `CCCc1cc(C)[nH]c(=O)c1CNC(=O)c1cc(-c2ccnc(N3CCN(C)CC3)c2)cc2c1cnn2C(C)C` [GSK343] + C=C(F)C(=O)N1CCN(c2nc(OC[C@@H]3CCCN3C)nc3c2CCN(c2cccc4cccc(Cl)c24)C3)C[C@@H]1CC#N [adagrasib], the “combination cScore with adagrasib” value in the assay with NCI-H2122 is 15.8; in the assay on SW837, -0.82; with NCI-H358, 4.64.
As to `COc1cc2ncnc(Nc3ccc(F)c(Cl)c3)c2cc1OCCCN1CCOCC1` [Gefitinib] + C=C(F)C(=O)N1CCN(c2nc(OC[C@@H]3CCCN3C)nc3c2CCN(c2cccc4cccc(Cl)c24)C3)C[C@@H]1CC#N [adagrasib], the figures for the “combination cScore with adagrasib” value in the assay on NCI-H2122, in the assay with SW837 and in the assay with NCI-H358 were 15.8, 23.8 and 12.5, respectively.
With `CCS(=O)(=O)Nc1ccc2c(c1)/C(=C(/Nc1ccc(CN3CCCCC3)cc1)c1ccccc1)C(=O)N2` [Hesperadin] + C=C(F)C(=O)N1CCN(c2nc(OC[C@@H]3CCCN3C)nc3c2CCN(c2cccc4cccc(Cl)c24)C3)C[C@@H]1CC#N [adagrasib], the “combination cScore with adagrasib” value was 8.14 in the assay on NCI-H2122, 0.27 with SW837 and 0.47 with NCI-H358.
For `O=C(O)CNC(=O)c1c(O)c2ccccc2n(Cc2ccccc2)c1=O` [IOX2] + C=C(F)C(=O)N1CCN(c2nc(OC[C@@H]3CCCN3C)nc3c2CCN(c2cccc4cccc(Cl)c24)C3)C[C@@H]1CC#N [adagrasib] the same measures were 25.2, 13.4 and 0.22.
For `C[C@H](NC(=O)c1c(N)nn2cccnc12)c1cc2cccc(C#Cc3cnn(C)c3)c2c(=O)n1-c1ccccc1` [IPI-549] + C=C(F)C(=O)N1CCN(c2nc(OC[C@@H]3CCCN3C)nc3c2CCN(c2cccc4cccc(Cl)c24)C3)C[C@@H]1CC#N [adagrasib], in that order: 13, 5.62 and -0.57.
For `C=CC(=O)N1CCC[C@@H](n2nc(-c3ccc(Oc4ccccc4)cc3)c3c(N)ncnc32)C1` [Ibrutinib] + C=C(F)C(=O)N1CCN(c2nc(OC[C@@H]3CCCN3C)nc3c2CCN(c2cccc4cccc(Cl)c24)C3)C[C@@H]1CC#N [adagrasib], in that order: 26.9, 2.16 and 9.97.
